This note sets out measurements from doi:10.1101/2025.10.30.685675v2 (biorxiv, 2026).

For this assay, the target named is T1, HsDLH (Homo sapiens, UniProt Q96DG6).
T1 construct: gene CMBL; N-terminal His6-Twin-Strep-SUMO tag kept, E. coli BL21(DE3), Ni-NTA
T1 sequence (Q96DG6 1-245): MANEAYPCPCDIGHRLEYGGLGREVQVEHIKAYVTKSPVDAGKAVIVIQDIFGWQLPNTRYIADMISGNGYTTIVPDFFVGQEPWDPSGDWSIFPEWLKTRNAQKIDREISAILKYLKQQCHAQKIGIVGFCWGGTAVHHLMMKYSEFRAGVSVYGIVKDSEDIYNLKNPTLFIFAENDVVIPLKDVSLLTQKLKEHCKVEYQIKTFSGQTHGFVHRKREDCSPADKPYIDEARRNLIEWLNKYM
The format is biochemical.

Regarding `CCOP(=O)(OCC)Oc1ccc2c(c1)Oc1cc(OP(=O)(OCC)OCC)ccc1C21OC(=O)c2ccccc21` [FDDEP], the KM entry is given as “displays very weak activity towards the fluorogenic phosphotriester FDDEP”.
